# Values quoted from earlier work as cited in patent US20250339420A1, “ANILINE-DERIVATIVE-CONTAINING EXTERNAL PREPARATION FOR SKIN” (KINOPHARMA, INC., priority 2022, published 2025).
# Legend:
# [1] = test system: papillomavirus
# [2] = test system: E6 and E7 genes of human papillomavirus (HPV)
# [3] = test system: p53 gene
structure (smiles),measurement,setting,value
"Fc1ccc(N2CCCCC2)c(NC(=S)c2ccncc2)c1 [Compound I-a, N-[5-fluoro-2-(1-piperidinyl)phenyl]-4-pyridinethioamide]",antiviral activity against papillomavirus,[1],exhibits antiviral activity
same,expression of E6 and E7 genes of human papillomavirus (HPV),[2],suppresses expression
same,effect on p53 gene,[3],stabilizes p53 gene
